Experimental data published in patent US10098889B2, “Complexes and salts of dihydropyrimidine derivatives and their application in pharmaceuticals” (SUNSHINE LAKE PHARMA CO., LTD., priority 2015, dated 2018).

Tests used:
Type in all cases: physicochemical
[1] = Stability studies under high temperature, high humidity and illumination conditions (overall assessment); settings: for Stability under high temperature, high humidity and illumination condition (in words): compared with amorphous compound (I)
Procedure: (§1) High temperature test: an appropriate amount of sample was put in a weighing bottle in the form of a thin layer of ≤5 mm, under a temperature of 60° C. for 10 days. Appearance, impurity and purity of the samples were tested respectively at the 5th and 10th day. […] If the sample has no significant change occurred at 60° C., it is not necessary to do the experiment under the condition of 40° C.
(§2) High humidity test: an appropriate amount of sample was put in a weighing bottle in the form of a thin layer of ≤5 mm, under a temperature of 25° C. for 10 days. Appearance, impurity and purity were tested respectively at the 5th and 10th day. If the moisture-absorption weight of the sample gains more than 5%, then the sample needs to be retested in the same manner under the conditions of 25° C. and RH75%±5%. If the moisture-absorption weight of the sample gains less than 5%, and other results meets the requirements, it is not necessary to do the experiment any more. (Note: the weighing bottle should be presaturated for one day by putting it into the humidistat (or a dryer containing a saturated solution of potassium nitrate) before high humidity test, then weighing the sample and weighing bottle together, and record the weight.)
(§3) Illumination test: an appropriate amount of sample was put in a weighing bottle in the form of a thin layer of ≤5 mm, under a […] for 13 days. Appearance, impurity and purity of the samples were tested respectively at the 5th and 13th day.

[2] = High humidity test (stability study); settings: 25° C.
Procedure: as §2
(§4) Experimental results of stability study of the compound of (S)-4-(((R)-6-(2-chloro-4-fluorophenyl)-5-(methoxycarbonyl)-2-(thiazol-2-yl)-3,6-dihydropyrimidin-4-yl)methyl)morpholine-3-carboxylic acid amorphous and the complex of (S)-4-(((R)-6-(2-chloro-4-fluorophenyl)-5-(methoxycarbonyl)-2-(thiazol-2-yl)-1,6-dihydropyrimidin-4-yl)methyl)morpholine-3-carboxylic acid and L-tartaric acid and its various salt forms under high temperature, high humidity and illumination conditions are shown in Table 4.

[3] = Illumination test (stability study)
Procedure: as §3, §4

[4] = High temperature test (stability study)
Procedure: as §1, §4

[5] = Experimental study of hygroscopicity; settings: for Weighting percentage of moisture absorption (%): constant humidity
Procedure: A dry glass weighing bottle with a plug was placed in a suitable thermostatic drier at 25° C.±1° C. (ammonium chloride and saturated solution of ammonium sulfate were placed on the bottom) on the day before the experiment, and weighed precisely. The propriate amount of the sample was plated into the weighing bottle, wherein the thickness of the sample typically is about 1 mm, and weighed precisely (m2). The weighing bottle was open and placed with the plug in the above constant temperature and humidity condition for 24 hours. The capped weighing bottle was weighed precisely (m3), and the weight gain percentage was calculated (%).
Test method: according to the Ph. Eur. <5.11>; Ch. P. 2010; II appendix XIX J; Weighting percentage of moisture absorption (%)=(m3−m2)/(m2−m1)×100%
Hygroscopicity characteristics: weighting percentage of moisture absorption
Judgement of Hygroscopicity Result:
(1) Air slaking: absorbing enough water to form liquid
(2) Of quite hygroscopicity: not less than 15%
(3) Of hygroscopicity: less than 15% but not less 2%
(4) Of slight hygroscopicity: less than 2% but not less than 0.2%

Solubility (HPLC) = assay: Solubility (HPLC)
Procedure: The solubility disclosed herein was measured by Aglient 1200 high performance liquid chromatograph VWD detector. The chromatographic column model is Waters Xbridge-C18 (4.6×150 mm, […]). The detection wavelength was 250 nm, the flow rate was 1.0 mL/minute, the column temperature was 35° C., the mobile phase was acetonitrile water (v/v=40/60).

[6] = High temperature, 60° C., 5 days
[7] = High temperature, 60° C., 10 days

SMILES	Appearance ([2]; 5 days)	Purity (%) ([2]; 5 days)	Total impurity (%) ([2]; 5 days)	Appearance ([2]; 10 days)	Purity (%) ([2]; 10 days)	Total impurity (%) ([2]; 10 days)	Appearance ([3]; 5 days)	Purity (%) ([3]; 5 days)	Total impurity (%) ([3]; 5 days)	Appearance ([3]; 13 days)	Purity (%) ([3]; 13 days)	Total impurity (%) ([3]; 13 days)	Appearance ([4]; 0 days)	Purity (%) ([4]; 0 days)	Total impurity (%) ([4]; 0 days)	Appearance [4, 6]	Purity (%) [4, 6] [%]	Total impurity (%) [4, 6] [%]	Appearance [4, 7]	Purity (%) [4, 7] [%]	further results
COC(=O)C1=C(CN2CCOC[C@H]2C(=O)O)N=C(c2nccs2)N[C@H]1c1ccc(F)cc1Cl.Cl [(S)-4-(((R)-6-(2-chloro-4-fluorophenyl)-5-(methoxycarbonyl)-2-(thiazol-2-yl)-1,6-dihydropyrimidin-4-yl)methyl)morpholine-3-carboxylic Acid Hydrochloride]	yellow	99.65	0.35	yellow	99.59	0.41	yellow	97.59	2.41	yellow	97.47	2.53	yellow	99.63	0.37	yellow	99.63	0.37	yellow	99.43	Stability under high temperature, high humidity and illumination condition (in words) [1]: better stability; Total impurity (%) [4, 7]: 0.57%
COC(=O)C1=C(CN2CCOC[C@H]2C(=O)O)NC(c2nccs2)=N[C@H]1c1ccc(F)cc1Cl [(S)-4-(((R)-6-(2-chloro-4-fluorophenyl)-5-(methoxycarbonyl)-2-(thiazol-2-yl)-3,6-dihydropyrimidin-4-yl)methyl)morpholine-3-carboxylic Acid]	a yellow	97.51	2.49	a yellow	97.42	2.58	a yellow	93.72	6.28	a yellow	90.56	9.44	a yellow	97.54	2.46	a yellow	96.99	3.01	a yellow	95.65	Hygroscopicity (in words) [5]: certain hygroscopicity; Weighting percentage of moisture absorption (%) ([5]; 25° C.±1° C., 24 hours, listed as Compound (I) prepared by Example 1): 1.441%; Weighting percentage of moisture absorption (%) ([5]; 25° C.±1° C., 24 hours, listed as compound (I)): 1.441%; Total impurity (%) [4, 7]: 4.35%
COC(=O)C1=C(CN2CCOC[C@H]2C(=O)O)N=C(c2nccs2)N[C@H]1c1ccc(F)cc1Cl.O=C(O)C(O)C(O)C(=O)O [Complex of (S)-4-(((R)-6-(2-chloro-4-fluorophenyl)-5-(methoxycarbonyl)-2-(thiazol-2-yl)-1,6-dihydropyrimidin-4-yl)methyl)morpholine-3-carboxylic Acid and L-tartaric Acid]	yellow	99.84	0.16	yellow	99.82	0.18	yellow	99.86	0.14	yellow	99.84	0.16	yellow	99.85	0.15	yellow	99.83	0.17	yellow	99.84	Stability under high temperature, high humidity and illumination condition (in words) [1]: best stability; Change of appearance and purity under high temperature, high humidity and illumination condition ([1]; listed as L-tartaric acid complex having crystalline form I(A)): basically unchanged; Change of appearance and purity under high temperature, high humidity and illumination condition ([1]; listed as complex formed from compound (I) and L-tartaric acid): unchanged substantially; Hygroscopicity (in words) [5]: much smaller; Judgement of hygroscopicity result ([5]; 25° C.±1° C., 24 hours): of no or little hygroscopicity; Weighting percentage of moisture absorption (%) ([5]; 25° C.±1° C., 24 hours, listed as Crystalline form I(A) of the complex of compound (Ia) and L-tartaric acid): 0.029%; Weighting percentage of moisture absorption (%) ([5]; 25° C.±1° C., 24 hours, listed as crystalline form I(A) of the complex of compound (Ia) and L-tartaric acid): 0.029%; Total impurity (%) [4, 7]: 0.16%; oxide impurities ([4]; preparation purity, from Table 4): less than 0.2%; Solubility (in words) (Solubility (HPLC)): good solubility
Br.COC(=O)C1=C(CN2CCOC[C@H]2C(=O)O)N=C(c2nccs2)N[C@H]1c1ccc(F)cc1Cl [(S)-4-(((R)-6-(2-chloro-4-fluorophenyl)-5-(methoxycarbonyl)-2-(thiazol-2-yl)-1,6-dihydropyrimidin-4-yl)methyl)morpholine-3-carboxylic Acid Hydrobromide]	yellow	99.68	0.32	yellow	99.64	0.36	yellow	97.63	2.37	yellow	96.06	3.94	yellow	99.70	0.30	yellow	99.69	0.31	yellow	99.63	Stability under high temperature, high humidity and illumination condition (in words) [1]: better stability; Total impurity (%) [4, 7]: 0.37%
